Patent US12655116B2, “Substituted isophthalic acid diamides” (Bayer Aktiengesellschaft, priority 2020, dated 2026)

Key:
[1] = tested on: AMARE; test: Pre-emergence herbicidal action against AMARE; format: in vivo, Amaranthus retroflexus
Method in brief: (§1)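 Sandy loam pots, seeds covered with soil, then surface-treated with WP or EC formulations at 600–800 l/ha water plus 0.2% wetting agent. Greenhouse, 3 weeks. Percent damage vs untreated controls.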

[2] = tested on: SETVI; test: Post-emergence herbicidal action against SETVI; format: in vivo, Setaria viridis
Method in brief: (§2)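 Herbicidal action is a visual percentage rating (0% = as untreated control, 100% = plants dead) made roughly 3 weeks after treatment. Plants were grown in sandy loam in the greenhouse and treated at the one-leaf stage, 2 to 3 weeks post-sowing. Treatment was a foliar spray of wettable-powder or emulsion-concentrate formulations at 600 to 800 l/ha water plus 0.2% wetting agent.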

[3] = tested on: MATIN; test: Pre-emergence herbicidal action against MATIN; format: in vivo, Matricaria inodora
Method in brief: as §1

[4] = tested on: ECHCG; test: Post-emergence herbicidal action against ECHCG; format: in vivo, Echinochloa crus-galli
Method in brief: as §2

[5] = tested on: VERPE; test: Post-emergence herbicidal action against VERPE; format: in vivo, Veronica persica; settings: 20 g/ha
Method in brief: as §2

[6] = tested on: AMARE; test: Post-emergence herbicidal action against AMARE; format: in vivo, Amaranthus retroflexus; settings: 20 g/ha, visual assessment about 3 weeks after treatment, 100% = plants have died, 0% = like control plants
Method in brief: as §2

[7] = tested on: ABUTH; test: Pre-emergence herbicidal action against ABUTH; format: in vivo, Abutilon theophrasti
Method in brief: as §1

[8] = tested on: VIOTR; test: Pre-emergence herbicidal action against VIOTR; format: in vivo, Viola tricolor
Method in brief: as §1

[9] = tested on: DIGSA; test: Post-emergence herbicidal action against DIGSA; format: in vivo, Digitaria sanguinalis; settings: 20 g/ha
Method in brief: as §2

[10] = tested on: PHBPU; test: Pre-emergence herbicidal action against PHBPU; format: in vivo, Pharbitis purpurea; settings: dosage 80 g/ha
Method in brief: as §1

[11] = tested on: ECHCG; test: Pre-emergence herbicidal action against ECHCG; format: in vivo, Echinochloa crus-galli; settings: 80 g/ha
Method in brief: as §1

[12] = tested on: VIOTR; test: Post-emergence herbicidal action against VIOTR; format: in vivo, Viola tricolor
Method in brief: as §2

[13] = tested on: LOLRI; test: Pre-emergence herbicidal action against LOLRI; format: in vivo, Lolium rigidum; settings: 80 g/ha
Method in brief: as §1

[14] = tested on: PHBPU; test: Post-emergence herbicidal action against PHBPU; format: in vivo, Pharbitis purpurea
Method in brief: as §2

[15] = tested on: AVEFA; test: Pre-emergence herbicidal action against AVEFA; format: in vivo, Avena fatua
Method in brief: as §1

[16] = tested on: ALOMY; test: Pre-emergence herbicidal action against ALOMY; format: in vivo, Alopecurus myosuroides
Method in brief: as §1

[17] = tested on: SETVI; test: Pre-emergence herbicidal action against SETVI; format: in vivo, Setaria viridis
Method in brief: as §1

[18] = tested on: DIGSA; test: Pre-emergence herbicidal action against DIGSA; format: in vivo, Digitaria sanguinalis
Method in brief: as §1

[19] = tested on: MATIN; test: Post-emergence herbicidal action against MATIN; format: in vivo, Matricaria inodora; settings: Tripleurospermum inodorum, 504 h, dosage 20 g/ha
Method in brief: as §2

[20] = tested on: ALOMY; test: Post-emergence herbicidal action against ALOMY; format: in vivo, Alopecurus myosuroides; settings: Alopecurus myosuroides, 504 h, visual assessment about 3 weeks after treatment vs untreated controls
Method in brief: as §2

[21] = tested on: VERPE; test: Pre-emergence herbicidal action against VERPE; format: in vivo, Veronica persica; settings: Veronica persica, 504 h, dosage 80 g/ha
Method in brief: as §1

[22] = 80 g/ha, scored visually after 3 weeks vs untreated controls (100% = plants have died, 0% = like control plants)
[23] = 20 g/ha, scored visually after 3 weeks, 100% = plants have died, 0% = like control plants

Cn1nnnc1NC(=O)c1ccc(C(F)(F)F)c(C(=O)NCC(F)F)c1Cl [Example 1-134]
100%: Pre-emergence action against AMARE in % ([1]; 20 g/ha, scored visually after 3 weeks vs untreated controls, 100% = plants have died, 0% = like control plants) | Pre-emergence action against AMARE in % [1, 22] | Pre-emergence action against MATIN in % ([3]; dosage 80 g/ha) | Pre-emergence action against VIOTR in % ([8]; dosage 80 g/ha) | Pre-emergence action against ECHCG in % [11] | Pre-emergence action against ALOMY (herbicidal activity) ([16]; 80 g/ha, pre-emergence, scored visually after 3 weeks vs untreated controls (100% = plants have died, 0% = like control plants)) | Pre-emergence action against SETVI in % ([17]; dosage 80 g/ha) | Pre-emergence action against DIGSA in % ([18]; dosage 80 g/ha)
90%: Post-emergence action against SETVI in % ([2]; dosage 5 g/ha) | Post-emergence action against SETVI in % ([2]; dosage 20 g/ha) | Pre-emergence action against MATIN in % ([3]; dosage 20 g/ha) | Post-emergence action against ECHCG in % ([4]; dosage 20 g/ha) | Post-emergence action at 20 g/ha against AMARE in % [6] | Pre-emergence action against ABUTH (herbicidal activity) [7, 22] | Pre-emergence action against VIOTR in % ([8]; dosage 20 g/ha) | Post-emergence action against DIGSA [9] | Post-emergence action against VIOTR in % ([12]; 5 g/ha) | Post-emergence action against VIOTR in % ([12]; 20 g/ha) | Post-emergence action against PHBPU in % ([14]; dosage 20 g/ha) | Pre-emergence action against AVEFA in % ([15]; 80 g/ha, pre-emergence) | Pre-emergence action against SETVI in % ([17]; dosage 20 g/ha) | Pre-emergence action against DIGSA in % ([18]; dosage 20 g/ha)
80%: Post-emergence action against VERPE in % [5] | Pre-emergence action against PHBPU in % [10] | Pre-emergence action against LOLRI in % [13] | Post-emergence action against PHBPU in % ([14]; dosage 5 g/ha) | Pre-emergence action against AVEFA [15, 23] | Pre-emergence action against ALOMY [16, 23]

CCCNC(=O)c1c(C(F)(F)F)ccc(C(=O)Nc2nnnn2C)c1Cl [Example 1-136]
90%: pest or weed control at 20 g/ha ([3]; Tripleurospermum inodorum, 504 h, dosage 20 g/ha) | pest or weed control at 20 g/ha ([4]; Echinochloa crus-galli, 504 h, dosage 20 g/ha) | pest or weed control at 20 g/ha ([6]; Amaranthus retroflexus, 504 h) | pest or weed control at 20 g/ha ([20]; dosage 20 g/ha) | pest or weed control at 20 g/ha ([7]; Abutilon theophrasti, 504 h, dosage 20 g/ha, scored visually after 3 weeks vs untreated controls, 100% = plants have died, 0% = like control plants, read-out: Pre-emergence action against ABUTH (herbicidal activity in percent)) | pest or weed control at 20 g/ha ([8]; Viola tricolor, 504 h, dosage 20 g/ha) | pest or weed control at 80 g/ha ([11]; Echinochloa crus-galli, 504 h) | pest or weed control at 80 g/ha ([13]; Lolium rigidum, 504 h) | pest or weed control at 80 g/ha [21] | pest or weed control at 80 g/ha ([16]; Alopecurus myosuroides, 504 h, 80 g/ha, pre-emergence, scored visually after 3 weeks vs untreated controls (100% = plants have died, 0% = like control plants))
80%: pest or weed control at 20 g/ha ([2]; Setaria viridis, 504 h, dosage 20 g/ha) | pest or weed control at 20 g/ha [19] | pest or weed control at 5 g/ha ([4]; Echinochloa crus-galli, 504 h, dosage 5 g/ha) | pest or weed control at 5 g/ha ([20]; dosage 5 g/ha) | pest or weed control at 80 g/ha ([10]; Ipomoea purpurea, 504 h) | pest or weed control at 80 g/ha ([15]; Avena fatua, 504 h, 80 g/ha, pre-emergence) | pest or weed control at 80 g/ha ([17]; Setaria viridis, 504 h, dosage 80 g/ha)
100%: pest or weed control at 20 g/ha ([1]; Amaranthus retroflexus, 504 h, 20 g/ha, scored visually after 3 weeks vs untreated controls, 100% = plants have died, 0% = like control plants) | pest or weed control at 80 g/ha ([1]; Amaranthus retroflexus, 504 h, 80 g/ha, scored visually after 3 weeks vs untreated controls, 100% = plants have died, 0% = like control plants) | pest or weed control at 80 g/ha ([3]; Tripleurospermum inodorum, 504 h, dosage 80 g/ha) | pest or weed control at 80 g/ha ([7]; Abutilon theophrasti, 504 h, 80 g/ha, scored visually after 3 weeks vs untreated controls (100% = plants have died, 0% = like control plants)) | pest or weed control at 80 g/ha ([8]; Viola tricolor, 504 h, dosage 80 g/ha) | pest or weed control at 20 g/ha ([18]; Digitaria sanguinalis, 504 h, dosage 20 g/ha) | pest or weed control at 80 g/ha ([18]; Digitaria sanguinalis, 504 h, dosage 80 g/ha)
